Experimental data reported in ChEMBL document CHEMBL1133206, “Antifungal rapamycin analogues with reduced immunosuppressive activity” (Bioorg Med Chem Lett, 2000).
≈ marks a conversion by molar mass, not a printed value.

Columns and labels:
Homo sapiens = species: Homo sapiens; experiment: Inhibitory activity against human concanavalin-A proliferation assay; assay type: functional
Candida albicans [1] = experiment: Compound was screened in vitro for antifungal activity against Candida albicans (CA 38247); weak; assay type: functional, organism-based
Candida albicans [2] = experiment: In vitro for antifungal activity against Candida albicans (CA 579a); assay type: functional
Nakaseomyces glabratus = experiment: In vitro antifungal activity against Torulopsis glabrata (TG 15545); assay type: functional
Pichia kudriavzevii = experiment: In vitro antifungal activity against Candida krusei (CK 28838); assay type: functional
Candida albicans [3] = experiment: Compound was screened in vitro for antifungal activity at a minimum inhibitory concentration (~100 ug/mL) against […] (CA 34140); not affected; assay type: functional
Candida albicans [4] = experiment: Compound was screened in vitro for antifungal activity against Candida albicans (CA 62376); weak; assay type: functional, organism-based
Aspergillus niger [5] = experiment: Compound was screened in vitro for antifungal activity at a minimum inhibitory concentration (~100 ug/mL) against Aspergillus niger; not affected; assay type: functional
Candida tropicalis [6] = experiment: In vitro antifungal activity against Candida tropicalis (CT 750); assay type: functional
Candida albicans [7] = experiment: In vitro antifungal activity against Candida albicans (CA 10231); assay type: functional
Candida albicans [8] = experiment: Compound was screened in vitro for antifungal activity against Candida albicans (CA 442); weak; assay type: functional, organism-based
Candida albicans [9] = experiment: In vitro antifungal activity against Candida albicans (CA 62376); Weak; assay type: functional, organism-based
Candida albicans [10] = experiment: Compound was screened in vitro for antifungal activity at a minimum inhibitory concentration (~100 ug/mL) against […] ([…]); Not affected; assay type: functional
Candida albicans [11] = experiment: In vitro antifungal activity against Candida albicans (CA 38247); Weak; assay type: functional, organism-based
Candida albicans [12] = experiment: Compound was screened in vitro for antifungal activity against Candida albicans (CA 62376); assay type: functional
Candida tropicalis [13] = experiment: Compound was screened in vitro for antifungal activity against Candida tropicalis (CT 750)
Candida albicans [14] = experiment: In vitro antifungal activity against Candida albicans (CA 442); Weak; assay type: functional, organism-based
Aspergillus niger [15] = experiment: In vitro antifungal activity at a minimum inhibitory concentration (~100 ug/mL) against Aspergillus niger; Not affected; assay type: functional; settings: Aspergillus niger; read-out: MIC
Candida albicans [16] = experiment: Compound was screened in vitro for antifungal activity against Candida albicans (CA 442); assay type: functional
Candida albicans [17] = experiment: Compound was screened in vitro for antifungal activity against Candida albicans (CA 38247); assay type: functional
[18] = molecular target: Peptidyl-prolyl cis-trans isomerase FKBP1A (Homo sapiens, UniProt P62942); experiment: The compound was tested for binding affinity to FK506 binding protein 12 using Rapamycin as control, with an ascomycin conjugate of alkaline phosphatase in a competition binding assay
Peptidyl-prolyl cis-trans isomerase FKBP1A, sequence (P62942 whole entry): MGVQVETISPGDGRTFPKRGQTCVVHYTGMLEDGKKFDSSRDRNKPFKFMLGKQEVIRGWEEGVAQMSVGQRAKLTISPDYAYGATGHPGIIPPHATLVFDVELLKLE

Candida albicans [19] = experiment: In vitro antifungal activity against […] (CA 34140); Not affected.; assay type: functional
Aspergillus niger [20] = experiment: Compound was screened in vitro for antifungal activity at a minimum inhibitory concentration (~100 ug/mL) against Aspergillus nigerl; Not effected; assay type: functional

Compound	IC50 (Homo sapiens) [µM]	MIC (Candida albicans [2]) [µg/mL]	MIC (Nakaseomyces glabratus) [µg/mL]	MIC (Pichia kudriavzevii) [µg/mL]	MIC (Candida tropicalis [6]) [µg/mL]	MIC (Candida albicans [7]) [µg/mL]	MIC (Candida albicans [9])	MIC (Candida albicans [11])	MIC (Candida albicans [12]) [µg/mL]	MIC (Candida albicans [14])	MIC (Candida albicans [16]) [µg/mL]	MIC (Candida albicans [17]) [µg/mL]	IC50 [18] [µM]	further results
CO[C@@H]1C[C@H](C[C@@H](C)[C@@H]2CC(=O)[C@H](C)/C=C(\C)[C@@H](O)[C@@H](OC)C(=O)[C@H](C)C[C@H](C)/C=C/C=C/C=C(\C)[C@H](N(O)C(C)=O)C[C@@H]3CC[C@@H](C)[C@@](O)(O3)C(=O)C(=O)N3CCCC[C@H]3C(=O)O2)CC[C@H]1O	0.095	6.25 (≈ 6.53 µM)	1.56 (≈ 1.63 µM)	3.12 (≈ 3.26 µM)	6.25 (≈ 6.53 µM)	6.25 (≈ 6.53 µM)	–	–	–	–	–	–	–	MIC (Candida albicans [1]): Weak; MIC (Candida albicans [3]): ~100 µg/mL (≈ 104 µM); MIC (Candida albicans [4]): Weak; MIC (Aspergillus niger [5]): ~100 µg/mL (≈ 104 µM); MIC (Candida albicans [8]): Weak
CO[C@H]1C[C@@H]2CC[C@@H](C)[C@@](O)(O2)C(=O)C(=O)N2CCCC[C@H]2C(=O)O[C@H]([C@H](C)C[C@@H]2CC[C@@H](O)[C@H](OC)C2)CC(=O)[C@H](C)/C=C(\C)[C@@H](O)[C@@H](OC)C(=O)[C@H](C)C[C@H](C)/C=C/C=C/C=C/1C [SIROLIMUS]	0.001	0.2 (≈ 0.219 µM)	< 0.1	0.78 (≈ 0.853 µM)	–	0.2 (≈ 0.219 µM)	Weak	Weak	0.2 (≈ 0.219 µM)	Weak	0.2 (≈ 0.219 µM)	0.2 (≈ 0.219 µM)	–	MIC (Candida albicans [10]): ~100 µg/mL (≈ 109 µM); MIC (Candida tropicalis [13]): 0.2 µg/mL (≈ 0.219 µM); MIC (Aspergillus niger [15]): ~100 µg/mL (≈ 109 µM)
CO[C@H]1C[C@@H]2CC[C@@H](C)[C@@](O)(O2)C(=O)C(=O)N2CCCC[C@H]2C(=O)O[C@H]([C@H](C)C[C@@H]2CC[C@@H](OC(=O)N3CCOCC3)[C@H](OC)C2)CC(=O)[C@H](C)/C=C(\C)[C@@H](O)[C@@H](OC)C(=O)[C@H](C)C[C@H](C)CCCC/C=C/1C	–	> 100	–	> 100	> 100	> 100	–	–	–	–	> 100	> 100	> 1	–
CO[C@@H]1C[C@H](C[C@@H](C)[C@@H]2CC(=O)[C@H](C)/C=C(\C)[C@@H](O)[C@@H](OC)C(=O)[C@H](C)C[C@H](C)/C=C/C=C/C=C(\C)[C@H](O)C[C@@H]3CC[C@@H](C)[C@@](O)(O3)C(=O)C(=O)N3CCCC[C@H]3C(=O)O2)CC[C@H]1O	0.0063	3.12 (≈ 3.47 µM)	0.78 (≈ 0.867 µM)	0.78 (≈ 0.867 µM)	1.56 (≈ 1.73 µM)	1.56 (≈ 1.73 µM)	Weak	Weak	–	Weak	–	–	0.014	MIC (Candida albicans [19]): ~100 µg/mL (≈ 111 µM); MIC (Aspergillus niger [15]): ~100 µg/mL (≈ 111 µM)
COC(=O)N[C@@H]1C[C@@H]2CC[C@@H](C)[C@@](O)(O2)C(=O)C(=O)N2CCCC[C@H]2C(=O)O[C@H]([C@H](C)C[C@@H]2CC[C@@H](O)[C@H](OC)C2)CC(=O)[C@H](C)/C=C(\C)[C@@H](O)[C@@H](OC)C(=O)[C@H](C)C[C@H](C)/C=C/C=C/C=C/1C	1.38	1.56 (≈ 1.63 µM)	0.78 (≈ 0.815 µM)	0.78 (≈ 0.815 µM)	1.56 (≈ 1.63 µM)	1.56 (≈ 1.63 µM)	–	–	–	–	–	–	–	MIC (Candida albicans [1]): Weak; MIC (Candida albicans [3]): ~100 µg/mL (≈ 104 µM); MIC (Candida albicans [4]): Weak; MIC (Aspergillus niger [5]): ~100 µg/mL (≈ 104 µM); MIC (Candida albicans [8]): Weak
CO[C@@H]1C[C@H](C[C@@H](C)[C@@H]2CC(=O)[C@H](C)/C=C(\C)[C@@H](O)[C@@H](OC)C(=O)[C@H](C)C[C@H](C)/C=C/C=C/C=C(\C)[C@H](N(O)C(=O)N3CCOCC3)C[C@@H]3CC[C@@H](C)[C@@](O)(O3)C(=O)C(=O)N3CCCC[C@H]3C(=O)O2)CC[C@H]1O	1.74	50 (≈ 48.6 µM)	6.25 (≈ 6.08 µM)	6.25 (≈ 6.08 µM)	25 (≈ 24.3 µM)	25 (≈ 24.3 µM)	Weak	Weak	–	Weak	–	–	–	MIC (Candida albicans [19]): ~100 µg/mL (≈ 97.2 µM); MIC (Aspergillus niger [20]): ~100 µg/mL (≈ 97.2 µM)
CO[C@H]1C[C@@H]2CC[C@@H](C)[C@@](O)(O2)C(=O)C(=O)N2CCCC[C@H]2C(=O)O[C@H]([C@H](C)C[C@@H]2CCC(O)[C@H](OC)C2)CC(=O)[C@H](C)/C=C(\C)[C@@H](O)[C@@H](OC)C(=O)[C@H](C)C[C@H](C)CCCC/C=C/1C (single isomer, unassigned; 3)	3.4	1.56 (≈ 1.7 µM)	–	0.78 (≈ 0.849 µM)	1.56 (≈ 1.7 µM)	1.56 (≈ 1.7 µM)	–	–	0.78 (≈ 0.849 µM)	–	1.56 (≈ 1.7 µM)	1.56 (≈ 1.7 µM)	–	–
CO[C@H]1C[C@@H]2CC[C@@H](C)[C@@](O)(O2)C(=O)C(=O)N2CCCC[C@H]2C(=O)O[C@H]([C@H](C)C[C@@H]2CC[C@@H](OC(=O)N(C)OC)[C@H](OC)C2)CC(=O)[C@H](C)/C=C(\C)[C@@H](O)[C@@H](OC)C(=O)[C@H](C)C[C@H](C)CCCC/C=C/1C	2.47	> 100	–	> 100	> 100	50 (≈ 49.7 µM)	–	–	–	–	–	–	> 1	–
CO[C@H]1C[C@@H]2CC[C@@H](C)[C@@](O)(O2)C(=O)C(=O)N2CCCC[C@H]2C(=O)O[C@H]([C@H](C)C[C@@H]2CC[C@H](n3cnnn3)[C@H](OC)C2)CC(=O)[C@H](C)/C=C(\C)[C@@H](O)[C@@H](OC)C(=O)[C@H](C)C[C@H](C)CCCC/C=C/1C	–	> 100	–	> 100	> 100	> 100	–	–	> 100	–	> 100	> 100	–	–
CO[C@H]1C[C@@H]2CC[C@@H](C)[C@@](O)(O2)C(=O)C(=O)N2CCCC[C@H]2C(=O)O[C@H]([C@H](C)C[C@@H]2CC[C@@H](OC(=O)N3CCCCC3)[C@H](OC)C2)CC(=O)[C@H](C)/C=C(\C)[C@@H](O)[C@@H](OC)C(=O)[C@H](C)C[C@H](C)CCCC/C=C/1C	–	> 100	–	> 100	> 100	> 100	–	–	–	–	> 100	> 100	–	–
CO[C@H]1C[C@@H]2CC[C@@H](C)[C@@](O)(O2)C(=O)C(=O)N2CCCC[C@H]2C(=O)O[C@H]([C@H](C)C[C@@H]2CC[C@@H](OC(=O)N3CCNCC3)[C@H](OC)C2)CC(=O)[C@H](C)/C=C(\C)[C@@H](O)[C@@H](OC)C(=O)[C@H](C)C[C@H](C)CCCC/C=C/1C	–	> 100	–	> 100	> 100	> 100	–	–	–	–	> 100	> 100	–	–
CO[C@@H]1C[C@H](C[C@@H](C)[C@@H]2CC(=O)[C@H](C)/C=C(\C)[C@@H](O)[C@@H](OC)C(=O)[C@H](C)C[C@H](C)/C=C/C=C/C=C(\C)[C@@H](N(O)C(=O)Oc3ccccc3)C[C@@H]3CC[C@@H](C)[C@@](O)(O3)C(=O)C(=O)N3CCCC[C@H]3C(=O)O2)CC[C@H]1O	1.1	25 (≈ 24.1 µM)	1.56 (≈ 1.51 µM)	1.56 (≈ 1.51 µM)	12.5 (≈ 12.1 µM)	12.5 (≈ 12.1 µM)	Weak	Weak	–	Weak	–	–	0.0021	MIC (Candida albicans [19]): ~100 µg/mL (≈ 96.6 µM); MIC (Aspergillus niger [15]): ~100 µg/mL (≈ 96.6 µM)
CO[C@H]1C[C@@H]2CC[C@@H](C)[C@@](O)(O2)C(=O)C(=O)N2CCCC[C@H]2C(=O)O[C@H]([C@H](C)C[C@@H]2CCC(O)[C@H](OC)C2)CC(=O)[C@H](C)/C=C(\C)[C@@H](O)[C@@H](OC)C(=O)[C@H](C)C[C@H](C)CCCC/C=C/1C (single isomer, unassigned; 2)	1.59	1.56 (≈ 1.7 µM)	–	1.56 (≈ 1.7 µM)	1.56 (≈ 1.7 µM)	1.56 (≈ 1.7 µM)	–	–	1.56 (≈ 1.7 µM)	–	1.56 (≈ 1.7 µM)	1.56 (≈ 1.7 µM)	–	–
